Measurements from patent publication US8492588B2, “Benzyloxy anilide derivatives useful as potassium channel modulators” (Valeant Pharmaceuticals International, priority 2008, dated 2013).

Each compound was assayed against T1, KCNQ2/3 heteromultimers (Rattus norvegicus, UniProt O88943+O88944) (assay: Rubidium (Rb+) efflux test in PC-12 cells). Details: NGF-differentiated PC-12 cells, depolarization buffer 15 mM KCl, 10 min.
T1 construct: endogenous in cells; host or cells: PC-12 cells differentiated with NGF-7s; no transfection is described
Format: cell-based
Procedure: Compounds of this invention formula were evaluated for activity toward potassium channels in a cell-based Rb^+ efflux assay. This cellular bioassay is believed to faithfully represent the M current channel activities identified with KCNQ2/3 heteromultimers. […] Additionally, antiseizure activity in vivo was evaluated in a mouse maximal electroshock seizure (MES) model, and neurotoxicities were determined from a rotorod neurocognitive motor impairment model.
PC-12 cells were grown at 37° C. and 5% CO2 in DMEM/F12 Medium (Dulbecco's Modified Eagle Medium with Nutrient Mix F-12, available from Invitrogen of Carlsbad, Calif.), supplemented with 10% horse serum, 5% fetal bovine serum, 2 mM glutamine, 100 U/ml penicillin, and […] streptomycin. They were plated in poly-D-lysine-coated 96-well cell culture microplates at a density of 40,000 cells/well and differentiated with 100 ng/ml NGF-7s for 2-5 days. For the assay, the medium was aspirated, and the cells were washed once with 0.2 ml in wash buffer (25 mM HEPES, pH 7.4, 150 mM NaCl, 1 mM MgCl2; 0.8 mM NaH2PO4, 2 mM CaCl2). The cells were then loaded with 0.2 ml Rh^+ loading buffer (wash buffer plus 5.4 mM […], 5 mM glucose) and incubated at 37° C. for 2 h. Attached cells were quickly washed three times with buffer (same as Rb^+ loading buffer, but containing 5.4 mM KCl instead of RbCl) to remove extracellular Rb^+. Immediately following the wash, 0.2 ml of depolarization buffer (wash buffer plus 15 mM KCl) with or without compounds was added to the cells to activate efflux of potassium ion channels. After incubation for 10 min at room temperature, the supernatant was carefully removed and collected. Cells were lysed by the addition of 0.2 ml of lysis buffer (depolarization buffer plus 0.1% Triton X-100) and the cell lysates were also collected. If collected samples were not immediately analyzed for Rb^+ contents by atomic absorption spectroscopy (see below), they were stored at 4° C. without any negative effects on subsequent Rb^+ analysis.
The concentrations of Rb^+ in the supernatants (Rb^+Sup) and the cell lysates (Rb^+Lys) were quantified using an ICR8000 flame atomic absorption spectrometer (Aurora Biomed Inc., Vancouver, B.C.) under conditions defined by the manufacturer. Samples 0.05 ml in volume were processed automatically from microtiter plates by dilution with an equal volume of Rb^+ sample analysis buffer and injection into an air-acetylene flame. The amount of Rb^+ in the sample was measured by absorption at 780 nm using a hollow cathode lamp as light source and a PMT detector. A calibration curve covering the range 0-5 mg/L Rb^+ in sample analysis buffer was generated with each set of plates. The percent Rb^+ efflux (F) was defined by F=[Rb^+Sup/(Rb^+Sup+Rb^+Lys)]×100%. wherein the Fc is the efflux in the presence of compound in depolarization buffer, Fb is the efflux in basal buffer, and Fs is the efflux in depolarization buffer, […]. The efflux (F) and compound concentration relationship was plotted to calculate an EC50 value, a compound's concentration for 50% of maximal RV efflux. Maximal Electroshock Seizure (MES) and Acute Toxicity Tests MES Test

`CCOC(=O)Nc1ccc(OCc2ccc(F)cc2)cc1C` and `CCOC(=O)Nc1ccc(OCc2ccc(F)cc2)cc1F` fall in the same range of EC50: 0.05 to 0.5 µM for the first, 0.05 to 0.5 µM for the second.

`Cc1cc(OCc2ccc(F)c(F)c2)cc(C)c1NC(=O)CC(C)(C)C` and `Cc1cc(OCc2ccc(F)cc2F)cc(C)c1NC(=O)CC(C)(C)C` fall in the same range of EC50: 0.01 to 0.05 µM for the first, 0.01 to 0.05 µM for the second.

`CCOC(=O)Nc1ccc(OCc2ccc(F)cc2)cc1C(F)(F)F` and `CCOC(=O)Nc1ccc(OCc2ccc(F)cc2)cc1` fall in the same range of EC50: 0.05 to 0.5 µM for the first, 0.05 to 0.5 µM for the second.

`Cc1cc(OCc2ccc(F)cc2)cc(C)c1NC(=O)CCC1CCCC1` and `Cc1cc(OCc2ccc(F)c(F)c2)cc(C)c1NC(=O)CCC1CCCC1` fall in the same range of EC50: 0.001 to 0.01 µM for the first, 0.001 to 0.01 µM for the second.

`Cc1cc(OCc2cccc(F)c2)cc(C)c1NC(=O)CC(C)(C)C` and `Cc1cc(OCc2cccc(Cl)c2)cc(C)c1NC(=O)CC(C)(C)C` fall in the same range of EC50: 0.01 to 0.05 µM for the first, 0.01 to 0.05 µM for the second.

`Cc1cc(OCc2ccc(Br)cc2)cc(C)c1NC(=O)CC(C)(C)C` and `Cc1ccc(COc2cc(C)c(NC(=O)CC(C)(C)C)c(C)c2)cc1` fall in the same range of EC50: 0.01 to 0.05 µM for the first, 0.01 to 0.05 µM for the second.

`Cc1cc(OCc2cccc(C(F)(F)F)c2)cc(C)c1NC(=O)CC(C)(C)C` and `Cc1cc(OCc2ccc(C(F)(F)F)cc2)cc(C)c1NC(=O)CC(C)(C)C` fall in the same range of EC50: 0.01 to 0.05 µM for the first, 0.01 to 0.05 µM for the second.

Compared with `Cc1cc(OCc2ccccc2C(F)(F)F)cc(C)c1NC(=O)CC(C)(C)C`, `Cc1cc(OCc2ccc(F)cc2)cc(C)c1NC(=O)CC(C)(C)C` is lower in EC50: 0.05 to 0.5 µM for the first, 0.01 to 0.05 µM for the second. The second is the more potent here.

For `Cc1cc(OCc2ccc(Cl)cc2)cc(C)c1NC(=O)CC(C)(C)C`, the EC50 was 0.01 to 0.05 µM.
